Laboratory results as given in US20070087988A1, “Hematopoietic progenitor kinase 1 for modulation of an immune response” (New York University, priority 2005, published 2007).

Assays:
[1] = target: HA-tagged murine HPK1 point mutant S171A (UniProt P70218)
[2] = target: HA-tagged murine HPK1 point mutant R168K (UniProt P70218)
[3] = target: HA-tagged murine HPK1 point mutant R169K (UniProt P70218)
[4] = system: HPK1; experiment: HPK1 immune complex in vitro kinase (IVK) assay, endogenous HPK1 from treated Jurkat cells; type: cell-based, human; settings: for HPK1 kinase activity (IVK) after phosphatase inhibitor: Jurkat cells, 10 min at 37° C., 100 nM calyculin A, 10 nM okadaic acid, 2 μg/ml cyclosporine A, 10 nM pervanadate; for PGE2-induced HPK1 activity: Jurkat cells pretreated with 10 μM H-89, then PGE2

For “cAMP-dependent protein kinase A (PKA), endogenous in Jurkat T cells”, the “HPK1 kinase activity (IVK assay) in response to PGE2 stimulation” value (from here on “HPK1 kinase activity (IVK assay)”) [1] was “mutation of serine 171 ablated the response of HPK1 to PGE2 stimulation signals”, the “HPK1 kinase activity (IVK assay)” value [2] was “Arginine to lysine mutations at either residue 168 or 169 of HPK1 reduced the responsiveness to PGE2 stimulation by approximately 90%” and the “HPK1 kinase activity (IVK assay)” value [3] was “Arginine to lysine mutations at either residue 168 or 169 of HPK1 reduced the responsiveness to PGE2 stimulation by approximately 90%”.

COC[C@@H]([C@H](O)[C@H](O)C(=O)NCC[C@H](C)c1nc(/C=C/C[C@@H]2O[C@]3(C[C@@H](O)[C@@H]2C)O[C@H]([C@H](C[C@H](O)[C@H](C)[C@H](O)[C@H](C)/C=C(C)/C(C)=C/C=C/C(C)=C\C#N)OC)[C@H](OP(=O)(O)O)C3(C)C)co1)N(C)C [calyculin A] was tested, and the “HPK1 kinase activity (IVK) after phosphatase inhibitor” value [4] was “activated HPK1 kinase activity”.

With cholera toxin the “HPK1 kinase activity (IVK) after PKA activator” value [4] was “robustly induced HPK1 kinase activity”.

In the case of O=S(=O)(NCCNC/C=C/c1ccc(Br)cc1)c1cccc2cnccc12 [H-89], the “PGE2-induced HPK1 activity” value [4] is reported as “blocked” and the “PGE2-induced HPK1 activity” value ([4]; listed as H89) is reported as “blocks PGE2-induced HPK1 activation”.

In the case of pervanadate, the “HPK1 kinase activity (IVK) after phosphatase inhibitor” value [4] is reported as “induced a response in HPK1 catalytic activity”.

C=C1[C@@H](O)[C@@H]2O[C@]3(CC[C@H](/C=C/[C@@H](C)[C@@H]4CC(C)=C[C@@]5(O[C@H](C[C@@](C)(O)C(=O)O)CC[C@H]5O)O4)O3)CC[C@H]2O[C@@H]1[C@@H](O)C[C@H](C)[C@H]1O[C@@]2(CCCCO2)CC[C@H]1C [okadaic acid] was tested, and the “HPK1 kinase activity (IVK) after phosphatase inhibitor” value [4] was “activated HPK1 kinase activity”.
